Experimental data from US20160158200A1, “Combinations of Hepatitis C Virus Inhibitors” (priority 2013, published 2016).

Assays:
[1] = tested on: HCV genotype 1a L31V variant with leucine 31 changed to valine in the NS5A protein; assay: microbe, parasite or virus in culture; assay type: cell-based; conditions: genotype 1a L31V replicon; test compound titrated with compound N47 fixed at 200 nM versus singly
[2] = tested on: HCV genotype 1a Y93H variant with tyrosine 93 changed to histidine in the NS5A protein; assay: microbe, parasite or virus in culture; assay type: cell-based; conditions: genotype 1a Y93H replicon; test compound titrated with compound N47 fixed at 200 nM versus singly
Summary of the method: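 In an HCV genotype 1a replicon cell-based assay carrying the NS5A Y93H substitution, BMS-790052 was tested alone and in combination with a fixed amount of a second test compound. The combinations were examined for synergistic activity.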

COC(=O)N[C@H](C(=O)N1C[C@@H]2C[C@@H]2[C@H]1c1ncc(-c2ccc(-c3ccc(-c4cnc([C@@H]5[C@H]6C[C@H]6CN5C(=O)[C@@H](NC(=O)OC)C(C)C)[nH]4)cc3)cc2)[nH]1)C(C)C
Fold-Synergistic G-1a (L31V) [1]: >100 fold
Fold-Synergistic G-1a (Y93H) [2]: >100 fold

COC(=O)N[C@@H](C(=O)N1CCC[C@H]1c1ncc(-c2ccc(-c3ncc(-c4cnc([C@@H]5CCCN5C(=O)[C@H](NC(=O)OC)c5ccccc5)[nH]4)cn3)cc2)[nH]1)c1ccccc1
Fold-Synergistic G-1a (L31V) [1]: <10 fold
Fold-Synergistic G-1a (Y93H) [2]: <10 fold

CN(C)C(C(=O)N1CCC[C@H]1c1nc(-c2ccc3nc([C@@H]4CCCN4C(=O)C(c4ccccc4)N(C)C)[nH]c3c2)c[nH]1)c1ccccc1 (stereo partly shown)
Fold-Synergistic G-1a (L31V) [1]: <10 fold
Fold-Synergistic G-1a (Y93H) [2]: <10 fold

COC(=O)N[C@H](C(=O)N1C2CC2CC[C@H]1c1ncc(-c2ccc(-c3ccc(-c4cnc([C@@H]5CCC6CC6N5C(=O)[C@@H](NC(=O)OC)C(C)C)[nH]4)cc3)cc2)[nH]1)C(C)C (stereo partly shown) [drawing 2291]
Fold-Synergistic G-1a (L31V) [1]: >100 fold
Fold-Synergistic G-1a (Y93H) [2]: >100 fold

COC(=O)N[C@H](C(=O)N1CCC[C@H]1c1ncc(C#Cc2ccc3cc(C#Cc4cnc([C@@H]5CCCN5C(=O)[C@@H](NC(=O)OC)C(C)C)[nH]4)ccc3c2)[nH]1)C(C)C
Fold-Synergistic G-1a (L31V) [1]: >10 fold
Fold-Synergistic G-1a (Y93H) [2]: <10 fold

COC(=O)N[C@H](C(=O)N1CCCC1c1nc2cc(-c3ccc4cc(-c5ccc(-c6cnc([C@@H]7CCCN7C(=O)[C@@H](NC(=O)OC)C(C)C)[nH]6)cc5)ccc4c3)ccc2[nH]1)C(C)C (stereo partly shown)
Fold-Synergistic G-1a (L31V) [1]: >10 fold
Fold-Synergistic G-1a (Y93H) [2]: >10 fold

COC(=O)N[C@@H](C(=O)N1CCC[C@H]1c1nc(-c2ccc(CCc3ccc(-c4c[nH]c([C@@H]5CCCN5C(=O)[C@H](NC(=O)OC)c5ccccc5)n4)cc3)cc2)c[nH]1)c1ccccc1
Fold-Synergistic G-1a (L31V) [1]: <10 fold
Fold-Synergistic G-1a (Y93H) [2]: <10 fold

COC(=O)N[C@H](C(=O)N1CC[C@H](C)[C@H]1c1ncc(-c2ccc(-c3ccc(-c4cnc([C@@H]5[C@@H](C)CCN5C(=O)[C@@H](NC(=O)OC)C(C)C)[nH]4)cc3)cc2)[nH]1)C(C)C
Fold-Synergistic G-1a (L31V) [1]: >100 fold
Fold-Synergistic G-1a (Y93H) [2]: >100 fold

COC(=O)N[C@H](C(=O)N1[C@@H]2C[C@@H]2C[C@H]1c1ncc(-c2ccc(C#Cc3ccc4c(ccc5[nH]c([C@@H]6C[C@H]7C[C@H]7N6C(=O)[C@@H](NC(=O)OC)C(C)C)nc54)c3)cc2)[nH]1)C(C)C
Fold-Synergistic G-1a (L31V) [1]: <10 fold
Fold-Synergistic G-1a (Y93H) [2]: >10 fold

COC(=O)N[C@H](C(=O)N1CCC[C@H]1c1nc2ccc(-c3ccc4nc(-c5ccc6nc([C@@H]7CCCN7C(=O)[C@@H](NC(=O)OC)C(C)C)[nH]c6c5)ccc4c3)cc2[nH]1)C(C)C
Fold-Synergistic G-1a (L31V) [1]: >10 fold
Fold-Synergistic G-1a (Y93H) [2]: >10 fold

COC(=O)N[C@H](C(=O)N1CCC[C@H]1c1ncc(-c2ccc(C#Cc3ccc4c(ccc5[nH]c([C@@H]6CCCN6C(=O)[C@@H](NC(=O)OC)C(C)C)nc54)c3)cc2)[nH]1)C(C)C
Fold-Synergistic G-1a (L31V) [1]: <10 fold
Fold-Synergistic G-1a (Y93H) [2]: >100 fold

COC(=O)N[C@H](C(=O)N1[C@H](C)CC[C@H]1c1ncc(-c2ccc(-c3ccc(-c4cnc([C@@H]5CC[C@@H](C)N5C(=O)[C@@H](NC(=O)OC)C(C)C)[nH]4)cc3)cc2)[nH]1)C(C)C
Fold-Synergistic G-1a (L31V) [1]: >100 fold
Fold-Synergistic G-1a (Y93H) [2]: >100 fold

CN1CCN(C(C(=O)N2CCC[C@H]2C(=O)Nc2ccc(-c3cnc(-c4ccc(NC(=O)[C@@H]5CCCN5C(=O)C(c5ccccc5)N5CCN(C)CC5)cc4)o3)cc2)c2ccccc2)CC1 (stereo partly shown)
Fold-Synergistic G-1a (L31V) [1]: <10 fold
Fold-Synergistic G-1a (Y93H) [2]: <10 fold

COC(=O)N[C@H](C(=O)N1[C@@H]2C[C@@H]2C[C@H]1c1ncc(-c2ccc([C@@H]3C[C@H]3c3ccc(-c4cnc([C@@H]5C[C@H]6C[C@H]6N5C(=O)[C@@H](NC(=O)OC)C(C)C)[nH]4)cc3)cc2)[nH]1)C(C)C
Fold-Synergistic G-1a (L31V) [1]: >10 fold
Fold-Synergistic G-1a (Y93H) [2]: >10 fold
